Data taken from ChEMBL document CHEMBL1137755, “[35S]GTP gamma S binding studies of amphiphilic drugs-activated Gi proteins: a caveat” (Bioorg Med Chem Lett, 2009).
Values belong to the compound of their own block, whether it stands above or below them. Active and inactive are the calls of the source. No cut-off for these calls is given here.

Assays:
[1] = target: Guanine nucleotide-binding protein G(i) subunit alpha-1 (Homo sapiens) (UniProt P63096); test: Activation of human Gi protein alpha1 subunit expressed in Escherichia coli assessed as protein bound [35S]GTPgammaS levels by scintillation spectroscopy; type: functional
[2] = target: Guanine nucleotide-binding protein G(o) subunit alpha (Homo sapiens) (UniProt P09471); test: Activation of human Go protein alpha subunit expressed in Escherichia coli assessed as protein bound [35S]GTPgammaS levels at 50 uM by scintillation spectroscopy; type: functional
[3] = target: Guanine nucleotide-binding protein G(i) subunit alpha-1 (Homo sapiens) (UniProt P63096); test: Activation of human Gi protein alpha1 subunit expressed in Escherichia coli assessed as protein bound [35S]GTPgammaS levels at 10 uM by scintillation spectroscopy; type: functional
[4] = target: Guanine nucleotide-binding protein G(i) subunit alpha-1 (Homo sapiens) (UniProt P63096); test: Activation of human Gi protein alpha1 subunit expressed in Escherichia coli assessed as protein bound [35S]GTPgammaS levels at 10 uM by scintillation spectroscopy relative to basal; type: functional
[5] = Critical micelle concentration by drop-shape analysis; type: physicochemical
[6] = target: Guanine nucleotide-binding protein G(i) subunit alpha-1 (Homo sapiens) (UniProt P63096); test: Activation of human Gi protein alpha1 subunit expressed in Escherichia coli assessed as protein bound [35S]GTPgammaS levels at 5 uM by scintillation spectroscopy; type: functional
[7] = target: Guanine nucleotide-binding protein G(i) subunit alpha-1 (Homo sapiens) (UniProt P63096); test: Activation of human Gi protein alpha1 subunit expressed in Escherichia coli assessed as protein bound [35S]GTPgammaS levels at 100 uM by scintillation spectroscopy; type: functional
[8] = target: Guanine nucleotide-binding protein G(i) subunit alpha-1 (Homo sapiens) (UniProt P63096); test: Activation of human Gi protein alpha1 subunit expressed in Escherichia coli assessed as protein bound [35S]GTPgammaS levels at 1 uM by scintillation spectroscopy; type: functional
[9] = target: Guanine nucleotide-binding protein G(o) subunit alpha (Homo sapiens) (UniProt P09471); test: Activation of human Go protein alpha subunit expressed in Escherichia coli assessed as protein bound [35S]GTPgammaS levels at 1 uM by scintillation spectroscopy; type: functional
[10] = target: Guanine nucleotide-binding protein G(o) subunit alpha (Homo sapiens) (UniProt P09471); test: Activation of human Go protein alpha subunit expressed in Escherichia coli assessed as protein bound [35S]GTPgammaS levels at 5 uM by scintillation spectroscopy; type: functional
[11] = target: Guanine nucleotide-binding protein G(o) subunit alpha (Homo sapiens) (UniProt P09471); test: Activation of human Go protein alpha subunit expressed in Escherichia coli assessed as protein bound [35S]GTPgammaS levels at 10 uM by scintillation spectroscopy; type: functional
[12] = target: Guanine nucleotide-binding protein G(o) subunit alpha (Homo sapiens) (UniProt P09471); test: Activation of human Go protein alpha subunit expressed in Escherichia coli assessed as protein bound [35S]GTPgammaS levels at 10 uM by scintillation spectroscopy relative to basal; type: functional
[13] = target: Guanine nucleotide-binding protein G(o) subunit alpha (Homo sapiens) (UniProt P09471); test: Activation of human Go protein alpha subunit expressed in Escherichia coli assessed as protein bound [35S]GTPgammaS levels at 100 uM by scintillation spectroscopy; type: functional
[14] = target: Guanine nucleotide-binding protein G(i) subunit alpha-1 (Homo sapiens) (UniProt P63096); test: Activation of human Gi protein alpha1 subunit expressed in Escherichia coli assessed as protein bound [35S]GTPgammaS levels at 50 uM by scintillation spectroscopy; type: functional

Sequence of Guanine nucleotide-binding protein G(o) subunit alpha (Homo sapiens) (P09471 2-354 limits assumed): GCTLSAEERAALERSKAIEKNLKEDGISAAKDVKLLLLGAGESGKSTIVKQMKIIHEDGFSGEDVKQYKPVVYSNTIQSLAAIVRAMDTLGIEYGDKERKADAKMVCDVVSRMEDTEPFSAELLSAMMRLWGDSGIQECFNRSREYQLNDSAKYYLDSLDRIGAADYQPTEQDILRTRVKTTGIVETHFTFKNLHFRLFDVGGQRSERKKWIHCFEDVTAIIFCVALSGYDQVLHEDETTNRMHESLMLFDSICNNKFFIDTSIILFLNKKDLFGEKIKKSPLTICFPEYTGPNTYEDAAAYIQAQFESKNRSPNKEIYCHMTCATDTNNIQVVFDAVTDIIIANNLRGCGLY
Sequence of Guanine nucleotide-binding protein G(i) subunit alpha-1 (Homo sapiens) (P63096 whole entry): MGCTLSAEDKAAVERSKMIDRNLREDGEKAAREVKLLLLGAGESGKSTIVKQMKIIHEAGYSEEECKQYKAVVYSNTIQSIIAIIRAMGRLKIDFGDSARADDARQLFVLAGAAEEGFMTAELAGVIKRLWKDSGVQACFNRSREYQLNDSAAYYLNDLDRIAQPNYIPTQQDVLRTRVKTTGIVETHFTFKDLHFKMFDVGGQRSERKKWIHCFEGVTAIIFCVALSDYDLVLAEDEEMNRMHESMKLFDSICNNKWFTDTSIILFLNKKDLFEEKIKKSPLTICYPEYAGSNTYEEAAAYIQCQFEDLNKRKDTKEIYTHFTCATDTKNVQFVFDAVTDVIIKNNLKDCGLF

Compound: CCCCCCCCCNN1CCNCC1
Activity [1]: inactive

Compound: CCCCCCCCCCCCCCCNC1CCNCC1
Activity [2]: 1400 fmol | Activity [3]: 70.6 fmol | Activity [4]: 693% | CMC [5]: 1.44 ×10⁻⁴ M | Activity [6]: 49.5 fmol | Activity [7]: 195 fmol | Activity [8]: 15.4 fmol | Activity [9]: 102 fmol | Activity [10]: 363 fmol | Activity [11]: 636 fmol | Activity [12]: 668% | Activity [13]: 1420 fmol | Activity [14]: 196 fmol

Compound: CCCCCCCCCCCCCCCNCC1CCN(CCNC=O)CC1
Activity [3]: 113 fmol | Activity [4]: 1170% | Activity [6]: 69.1 fmol | Activity [8]: 8.9 fmol | Activity [14]: 980 fmol

Compound: CCCCCNN1CCNCC1
Activity [1]: inactive

Compound: CCOCCOCCOCCNC1CCNCC1
Activity [1]: inactive

Compound: c1ccc(CCCCNN2CCNCC2)cc1
Activity [1]: inactive

Compound: CCCCCCCNC1CCNCC1
Activity [1]: inactive

Compound: c1ccc(CCCCNCC2CCNCC2)cc1
Activity [1]: inactive

Compound: CCCCCCCCCNC1CCNCC1
Activity [1]: inactive

Compound: CCCCCCCCCCCCCCCNC1CCN(CCN)CC1
CMC [5]: 1 ×10⁻⁴ M | Activity [1]: Active

Compound: CCCCCCCCCCCCCCCNC1CCN(C(=O)[C@@H](N)CCCCN)CC1
Activity [1]: Active

Compound: CCCCCNC1CCNCC1
Activity [1]: inactive

Compound: CCCCCCCCCCCCCCCNC1CCN(CCNC(=O)[C@@H](N)CCCCN)CC1
Activity [1]: Active

Compound: CCCCCCCCCCCCCCCN1CCC(NC(=O)[C@@H](N)CCCCN)CC1
Activity [3]: 157 fmol | Activity [4]: 1660% | Activity [6]: 103 fmol | Activity [8]: 23.7 fmol | Activity [14]: 185 fmol

Compound: CCOCCOCCOCCOCCNC1CCNCC1
Activity [1]: inactive

Compound: c1ccc(CCCCNC2CCNCC2)cc1
Activity [1]: inactive

Further lines, results first:

Activity [1]: inactive
Compound: CCOCCOCCOCCNN1CCNCC1

Activity [1]: inactive
Compound: CCOCCOCCOCCOCCOCCNC1CCNCC1

Activity [1]: inactive
Compound: CCCCCNCC1CCNCC1

Activity [1]: inactive
Compound: CCCCCCCCCN1CCC(C2CCNCC2)CC1

Activity [3]: 275 fmol | Activity [4]: 2990% | CMC [5]: 1.41 ×10⁻⁴ M | Activity [6]: 33.3 fmol | Activity [8]: 19.9 fmol | Activity [14]: 781 fmol
Compound: CCCCCCCCCCCCCCCN1CCC(C2CCN(CCNC(=O)[C@@H](N)CCCCN)CC2)CC1

Activity [1]: inactive
Compound: CCCCCCCN1CCC(C2CCNCC2)CC1

Activity [1]: inactive
Compound: CCCCCCCNN1CCNCC1

Activity [3]: 234 fmol | Activity [4]: 2550% | Activity [6]: 78.7 fmol | Activity [8]: 11.6 fmol | Activity [14]: 2300 fmol
Compound: CCCCCCCCCCCCCCCN1CCC(C2CCN(CCN)CC2)CC1

Activity [1]: Active
Compound: CCCCCCCCCCCCCCC(=O)N1CCC(C2CCN(C(=O)[C@@H](N)CCCCN)CC2)CC1

Activity [1]: inactive
Compound: CCOCCOCCOCCNCC1CCNCC1

Activity [1]: inactive
Compound: CCOCCOCCOCCN1CCC(C2CCNCC2)CC1

Activity [1]: Active
Compound: CCCCCCCCCCCCCCCN1CCC(C2CCN(C(=O)[C@@H](N)CCCCN)CC2)CC1

Activity [1]: inactive
Compound: CCOCCOCCOCCOCCOCCN1CCC(C2CCNCC2)CC1

Activity [1]: inactive
Compound: CCOCCOCCOCCOCCN1CCC(C2CCNCC2)CC1

Activity [1]: inactive
Compound: c1ccc(CCCCN2CCC(C3CCNCC3)CC2)cc1

Activity [1]: inactive
Compound: CCCCCN1CCC(C2CCNCC2)CC1

Activity [3]: 87 fmol | Activity [4]: 877% | Activity [6]: 76.2 fmol | Activity [8]: 30.3 fmol | Activity [14]: 103 fmol
Compound: CCCCCCCCCCCCCCC(=O)N1CCC(C2CCN(CCN)CC2)CC1
